Source: PMC11148078, “Potent activity of polymyxin B is associated with long-lived super-stoichiometric accumulation mediated by weak-affinity binding to lipid A” (Nature Communications, 2024)
Entries after “also recorded” stand apart in the source; their conditions may differ. Bridge positions count the residues as written; N and C are the ends. Square brackets hold non-standard residues; d marks the D form. Peptide text beside a SMILES is read from it. * marks the point of attachment. X1 = CC[C@H](C)CCCCC(=O)*; Dab = NCC[C@H](N)C(=O)O

Tests used:
[1] = tested on: E. coli mcr1; format: cell-based; conditions: for MIC: strain carrying plasmid encoding mcr-1, LB + 0.2% arabinose, carbenicillin, 0.0005% tween-80, overnight 37 °C
Description: (§1) Bacterial strains and plasmids are listed in SI Table S5. LB growth media was prepared according to manufacturer’s instructions and supplemented with 0.2% arabinose and carbenicillin (50 μg/mL) for the strains containing pBAD24-mcr1 plasmid. Cultures were started by inoculating 3 ml LB with 1–2 colonies from fresh overnight plates and grown at 37 °C until in log phase. Modified minimal inhibitory concentration (MIC) assays were performed in 96-well round bottom polystyrene plates (Corning) with a final volume of 100 µl in LB supplemented with tween-80 at 0.0005%. […] Polymyxin B sulfate (TCI Co. Ltd), polymyxin B nonapeptide (PMBN) (Sigma), and brevicidine (Genentech) were diluted directly in the assay plates. Bacteria were diluted in LB with tween-80 0.0005% and added to a final OD600 of 0.0005. Growth was measured via OD600 on a SpectraMax M5 plate reader after overnight static growth at 37 °C with humidity.

[2] = tested on: E. coli PmrA^G53E; format: cell-based; conditions: for MIC: LB + 0.0005% tween-80, overnight 37 °C
Description: as §1

[3] = tested on: wild-type E. coli cells; assay: Whole cell SPR, wild-type E. coli; format: binding
Description: Bacterial strains were grown in LB or LB with 0.2% arabinose and carbenicillin (50 μg/mL) to log phase (OD600 approximately 0.4–0.6), centrifuged for 10 min at 2500 × g (3500 rpm using a tabletop centrifuge), and re-suspended in PBS to a final OD600 of approximately 5. SPR on whole bacterial cells was performed and analyzed as described for OMVs on C1 chip, but with an additional carry-over wash prior to the capture. Regeneration of the chip after whole cell binding also required additional steps ([…] flow rate): (1) PBS supplemented with 32 mM MgCl2 for 120 s, (2) 2.5 M NaCl for 30 s, (3) 0.5% SDS (Desorb 1, Cytiva) for 60 s with carry over controls between.

[4] = tested on: wt-OMVs; assay: Single-cycle kinetic SPR binding to immobilized wt-OMVs; set-up: species or system E. coli; conditions: for SPR binding in presence of excess Mg^2+: 32 mM Mg^2+; for SPR binding profile: serial doubling injections, C1 chip
Description: Polymyxin B was covalently attached to a C1 chip (Series S Sensor Chip C1, Cytiva) using an amine coupling kit (Cytiva). Cartoon in Fig. 1A created with BioRender (biorender.com). Briefly, equal amounts of reagents N-hydroxysuccinimide and 1-ethyl-3-(3-dimethylaminopropyl) carbodiimide hydrochloride were mixed as per manufacturer’s instructions and immediately added to the gold chip surface for 2 min, washed with distilled deionized water, and dried. Sufficient polymyxin B (1 mM in 1 M HEPES buffer, pH 8) was added to cover the chip surface, incubated at room temperature for 1 h, washed as before, and then incubated with 1 M ethanolamine hydrochloride-NaOH, pH 8.5, for 1 min. The chip surface was washed with water, dried as previously described, immediately loaded into a Biacore S200, and primed with running buffer (described below) to equilibrate the system. C1 chips were used for multiple runs and discarded upon removal from the Biacore S200.
SCK C1-chip SPR experiments were performed in running buffer (Dulbecco’s phosphate-buffered salt solution 1x without calcium or magnesium (Fisher Scientific), pH 7.4, with 0.0005% tween-80 (Sigma) passed through a 0.2 µm filter) unless otherwise indicated. Inclusion of tween-80 prevented loss of polymyxin to the plastics[34] (also see Supplementary Information Methods). For experiments with brevicidine, which was suspended in DMSO, 0.125% DMSO was included in the running buffer. OMVs were diluted from frozen stocks to approximately 20–30 µg/ml protein in the OMV buffer. Capture of OMVs was performed at a low flow rate ([…]) for 300 s over the test channel(s) followed by a 300 s stabilization period. All subsequent steps were at a flow rate of […]. For single cycle kinetics, two-fold dilutions were injected over the channel(s) loaded with OMVs and a reference channel without OMVs for 30 s contact and 480 s dissociation. To regenerate chips, 0.5% SDS (desorb 1, Cytiva) was injected into all channels for 60 s at […] twice, with an extra buffer wash and four carry-over control steps to prevent residual SDS from disrupting the following cycle.
All single-cycle kinetic SPR traces shown were double-referenced (unless indicated) within the Biacore S200 Evaluation Software 1.0, exported as a.txt file, and imported (decimated) into GraphPad Prism (version 9.3.1 for Mac, GraphPad Software, San Diego, CA). For clarity, in some cases individual outlier data points (at buffer transitions) were removed when this would not change the overall data or conclusions.

[5] = tested on: E. coli mcr-1+rifampicin; assay: Rifampicin potentiation / outer membrane permeability, E. coli mcr-1; format: cell-based
Description: as §1

[6] = tested on: E. coli PmrA^G53E+rifampicin; assay: Rifampicin potentiation / outer membrane permeability, E. coli PmrA^G53E; format: cell-based
Description: as §1

[7] = tested on: mammalian extracellular vesicles (Expi293 cells); assay: SPR binding to mammalian vesicles on LP chip; conditions: 312.5 nM–40 µM, 25 °C
Source text: tween-80 (SI Fig. S4F). Note that higher concentrations were used to resolve the interaction above non-specific chip binding and the loss of polymyxin B to binding of plastics as discussed […]
OMVs isolated from polymyxin-resistant bacteria (resistant-OMVs) were composed of modified lipid A (SI Table S1 and SI Fig. S6) and were immobilized via amine-coupled polymyxin B to the surface of a C1 chip (SI Fig. S4G). Given the results of our studies here, the binding of resistant-OMVs to the amine-coupled polymyxin B surface (stably, at least within the time frames used here) is not surprising. OMVs have several advantages over whole cells and purified LPS. They can be produced in large batches and frozen for multiple experiments. OMVs can be isolated from potentially any genetic background (such as the two polymyxin-resistant strains used here), from potentially any gram-negative bacterial strains, and allow interrogation of types of LPS which are not commercially available (ex. modified lipid A species). […]
Analysis and compartment temperature were set to 25°C. Mammalian vesicles from Expi293 cells were isolated as described19 by harvesting supernatants and concentrating vesicles via ultra-centrifugation (120,000 xg, 4°C, 1h), washing, suspending pellet in PBS, quantifying by Bradford protein assay, and diluting to […] in PBS. […]

Structure (SMILES)	MIC [1] [µM]	MIC [2] [µM]	SPR binding profile [3]	SPR binding in presence of excess Mg^2+ [4]	SPR binding profile [4]	MIC in presence of rifampicin [5] [µM]	MIC in presence of rifampicin [6] [µM]	antibacterial activity ([1]; pBAD-mcr-1)	antibacterial activity [2]	effect of EDTA on SPR binding ([4]; EDTA 4 mM, maximum 625 nM, n=3)	outer membrane permeabilization / rifampicin potentiation [5]	outer membrane permeabilization / rifampicin potentiation [6]	SPR binding to mammalian cell derived vesicles [7]
CC(C)C[C@@H]1NC(=O)[C@@H](Cc2ccccc2)NC(=O)[C@H](CCN)NC(=O)[C@@H](NC(=O)[C@H](CCN)NC(=O)[C@@H](N)[C@@H](C)O)CCNC(=O)[C@H]([C@@H](C)O)NC(=O)[C@H](CCN)NC(=O)[C@H](CCN)NC1=O [PMBN] (H-T[Dab][Dab][Dab][dF]L[Dab][Dab]T; lactam 3-C)	>40	>40	exhibited only weak, saw-tooth binding	eliminated	exhibited only weak, saw-tooth binding; also recorded: exclusively produces rapidly reversible binding	2.5	20	–	–	–	–	–	–
CC[C@H](C)CCCCC(=O)N[C@@H](CCN)C(=O)N[C@H](C(=O)N[C@@H](CCN)C(=O)N[C@H]1CCNC(=O)[C@H]([C@@H](C)O)NC(=O)[C@H](CCN)NC(=O)[C@H](CCN)NC(=O)[C@H](CC(C)C)NC(=O)[C@@H](Cc2ccccc2)NC(=O)[C@H](CCN)NC1=O)[C@@H](C)O [Polymyxin B] (X1-[Dab]T[Dab][Dab][Dab][dF]L[Dab][Dab]T; lactam 4-C (inferred); N-terminus assumed)	2.5 to 5	10	same polymyxin B binding profiles were observed	reduced to a weak transient saw-tooth profile without stably bound polymyxin B	dominated by the accumulation of tightly bound polymyxin B and a superimposed saw-tooth profile associated with transient binding	0.001	0.001	resistant to killing by polymyxin B	resistant to killing by polymyxin B	had no effect on polymyxin binding	still potentiated the activity of an antibiotic normally excluded by the outer membrane, rifampicin	still potentiated the activity of an antibiotic normally excluded by the outer membrane, rifampicin	distinct from what we observe with OMVs and bacterial cells
